Results taken from patent US20190358247A1 (The Medical College of Wisconsin, Inc., priority 2016, published 2019).

Legend:
MiaPaCa-2 cells = experiment: Three-dimensional spheroid growth in Matrigel; type: cell-based, human
Description: Three-dimensional spheroid cell cultures of PDAC. MiaPaCa-2 cells (5,000) were seeded in 96-well plates containing Matrigel (Corning), used as scaffold. This typical 3D-cell culture system allows spheroids to form within the matrix. […] At days 3, 7, and 14 the wells were observed by bright-field microscopy and images acquired on a Nikon Eclipse Ti inverted microscope (Nikon instrument Inc., NY, USA). Spheroid-forming cells were counted using the Nikon NIS Elements imaging software (Nikon). Data are expressed as mean and SD of number of spheroids.
We tested the antiproliferative effects of Mito-Met and Met in the multicellular spheroid model (FIG. 11A). MiaPaCa-2 cells were cultured for 14 days in Matrigel and treated with Mito-Met10 and Met.

FC1242-luc = experiment: Orthotopic syngeneic FC1242-luc engraftment model, tumor growth; type: in vivo, C57BL/6 mice; conditions: for in vivo tumor growth compared with Met: 1 mg/kg daily i.p.
From the text: In vivo studies and bioluminescence imaging.

[1] = Tissue accumulation in FC1242-luc orthotopic mice; type: in vivo; conditions: 1 mg/kg daily for two weeks; liver, kidney, spleen, tumor
Description: FIG. 19. Tissue accumulation of Mito-Met in in vivo FC1242-luc orthotopic mouse model. FC1242-luc orthotopic mice treated with Mito-Met10 (1 mg/kg) daily for 2 weeks. Tissue harvesting and extractions were performed 3 days after the last treatment. Quantitative data on concentrations of Mito-Met after normalization to tissue wet weight are represented as mean±SD, n=5.

Q: Which “fold more effective than Met in inhibiting PDAC proliferation, 2D and 3D cell growth assays” value (MiaPaCa-2 cells) does the source give for `Br.N=C(N)NC(=N)NCCCCCCCCCC[P+](c1ccccc1)(c1ccccc1)c1ccccc1` [Mito-Met10] here?
A: Its value is 1,000- to 10,000 fold.

Q: And the PDAC spheroid growth (MiaPaCa-2 cells; 0.5 μM, 14 days)?
A: Its PDAC spheroid growth is “potently inhibited PPAC spheroid growth”.

Q: What about the “in vivo tumor growth compared with Met” value (FC1242-luc) of the same compound?
A: The value was “considerably more potent than Met”.

Q: And the “in vivo tumor growth compared with Met” value (FC1242-luc; listed as Mito-Met)?
A: The value was “considerably more effective than Met”.

Q: What about the “therapeutic index relative to Met” value (FC1242-luc; mouse, in vivo) of the same compound?
A: Its value is ~1,000 fold.

Q: And the “times more effective than Met in abrogating PDAC tumor growth” value (FC1242-luc; mouse, in vivo)?
A: The value was “at least 100 times”.

Q: What about the tissue accumulation [1] of the same compound?
A: The tissue accumulation was “increased accumulation”.
